Measured values taken from paper PMC2879341 (Chembiochem : a European journal of chemical biology, 2009).

Molecular target: T1, GilR (Streptomyces griseoflavus, UniProt Q7X2G7)
T1 sequence (Q7X2G7 1-498): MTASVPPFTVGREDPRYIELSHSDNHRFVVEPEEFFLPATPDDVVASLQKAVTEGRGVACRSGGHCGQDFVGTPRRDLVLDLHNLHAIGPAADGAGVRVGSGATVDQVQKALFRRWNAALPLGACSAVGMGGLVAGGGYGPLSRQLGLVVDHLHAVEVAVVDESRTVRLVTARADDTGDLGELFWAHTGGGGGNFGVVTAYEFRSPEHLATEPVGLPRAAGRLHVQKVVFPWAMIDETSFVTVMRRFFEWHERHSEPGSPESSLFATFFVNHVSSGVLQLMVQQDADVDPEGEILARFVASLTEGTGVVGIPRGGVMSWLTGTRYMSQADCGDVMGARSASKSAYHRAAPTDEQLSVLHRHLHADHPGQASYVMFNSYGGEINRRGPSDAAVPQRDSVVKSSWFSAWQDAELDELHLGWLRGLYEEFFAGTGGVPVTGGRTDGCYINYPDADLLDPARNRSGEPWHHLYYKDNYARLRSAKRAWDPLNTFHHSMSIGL
Assay: UV spectrum of purified protein
Assay type: binding
Settings: covalent

Cc1cc2nc3c(=O)[nH]c(=O)nc-3n(C[C@H](O)[C@H](O)[C@H](O)COP(=O)(O)OP(=O)(O)OC[C@H]3O[C@@H](n4cnc5c(N)ncnc54)[C@H](O)[C@@H]3O)c2cc1C [FAD]
UV spectrum of purified protein; further analysis in supplement: FAD in fact is covalently bound to the enzyme (see the Supporting Information)
